Values quoted from earlier work in US20110189319A1, “Lifeforce liquid supplement” (priority 2010, published 2011).
Like-named read-outs stand apart in the source and are kept apart here.

Assays:
[1] = system: patients affected by chronic cerebrovasculopathy; settings: 1000 mg/day i.m.
[2] = system: patients with Alzheimer disease; settings: 1,000 mg/day
[3] = in vivo
AMD patients = settings: 10 mg daily, 12 months
lymphocytes = settings: relative to beta-carotene
[4] = system: permanent middle cerebral artery occlusion in rats; settings: rats, 2,3,5-triphenyltetrazolium-chloride staining
[5] = in vivo; remark: listed apart in the source
[6] = system: patients suffering from mild to moderate dementia; settings: 10 or 20 mg three times a day, sixteen weeks
[7] = system: patients suffering from multiple cerebral infarcts
[8] = target: phosphodiesterase (PDE) type-1
[9] = system: elderly patients with chronic cerebral dysfunction
[10] = system: healthy female volunteers; settings: 40 mg three times a day, two days
[11] = not given; remark: listed apart in the source
[12] = oral, healthy male volunteers, PET
[13] = system: healthy elderly volunteers; settings: 100 mg×3/day p.o., 12 weeks
[14] = system: elderly with age-associated memory impairment; settings: in vivo
young adults = settings: 300 mg each day for a month, neuroticism scores above the median
exercise capacity = settings: 750 mg soybean-derived daily for 10 d
women = settings: highest versus least dietary intake
[15] = system: female health professionals; settings: about 262.4 versus 4.4 milligrams per day
[16] = 100 microM, ascorbate/Fe2+ oxidative stress
[17] = 2,038 subjects without hypertension
[18] = 2,238 subjects not using drugs, supplements or special diet
[19] = high (0.67% kcal) versus lower intake, all participants

Compound: C[N+](C)(C)CCOP(=O)(O)OP(=O)([O-])OC[C@H]1O[C@@H](n2ccc(N)nc2=O)[C@H](O)[C@@H]1O [Citicoline, cytidine 5′-diphosphocholine]
- side-effects [1]: No side-effects were detected
- bioavailability (in vivo): greater than 90%
- excreted in feces (oral doses, healthy adults): less than one
- first plasma peak after ingestion (oral, biphasic): one
- second larger plasma peak post-dosing (oral, biphasic): 24 h
- tolerability [2]: well tolerated

Compound: CC1=C[C@H](O)CC(C)(C)[C@H]1/C=C/C(C)=C/C=C/C(C)=C/C=C/C=C(C)/C=C/C=C(C)/C=C/C1=C(C)C[C@@H](O)CC1(C)C [Lutein]
- bioavailability [3]: approximately 70%
- increase in macular pigment density relative to placebo (AMD patients): 50%
- visual function (glare recovery, contrast sensitivity, visual acuity) vs. placebo (AMD patients): significant improvements

Compound: CC(C)=CCC/C(C)=C/C=C/C(C)=C/C=C/C(C)=C/C=C/C=C(C)/C=C/C=C(C)/C=C/C=C(\C)CCC=C(C)C [Lycopene]
- protection of lymphocytes from membrane damage and cell death (lymphocytes): twice as efficiently as beta-carotene

Compound: C[C@]12N[C@H](Cc3ccccc31)c1ccccc12 [MK-801]
- decrease of infarct volume compared to control [4]: 18%

Compound: CC(C)=CCC[C@](C)(O[C@@H]1O[C@H](CO[C@@H]2O[C@H](CO)[C@@H](O)[C@H](O)[C@H]2O)[C@@H](O)[C@H](O)[C@H]1O)[C@H]1CC[C@]2(C)[C@@H]1[C@H](O)C[C@@H]1[C@@]3(C)CC[C@H](O[C@@H]4O[C@H](CO)[C@@H](O)[C@H](O)[C@H]4O[C@@H]4O[C@H](CO)[C@@H](O)[C@H](O)[C@H]4O)C(C)(C)[C@@H]3CC[C@]12C [Rb1, Ginsenoside Rb1]
- oral bioavailability ([5]; po): low oral bioavailability

Compound: CC(C)=CCC[C@](C)(O[C@@H]1O[C@H](CO)[C@@H](O)[C@H](O)[C@H]1O)[C@H]1CC[C@]2(C)[C@@H]1[C@H](O)C[C@@H]1[C@@]3(C)CC[C@H](O)C(C)(C)[C@@H]3[C@@H](O[C@@H]3O[C@H](CO)[C@@H](O)[C@H](O)[C@H]3O)C[C@]12C [Rg1, ginsenoside Rg1]
- elimination from the blood [5]: rapidly eliminated from the blood

Compound: CCOC(=O)C1=C[C@]2(CC)CCCN3CCc4c(n1c1ccccc41)[C@@H]32 [Vinpocetine]
- cognitive improvement versus placebo [6]: Statistically significant cognitive improvements
- side effects [6]: no clinically relevant side effects
- side effects ([7]; in vivo): No serious side effect
- digit span backward test ([7]; three months): did not show any significant worsening
- flow velocities after breath holding, acute phase, versus placebo ([7]; transcranial Doppler): significantly lower
- decrease of infarct volume compared to control [4]: 42%
- IC50 [8]: ~10 µM
- cognitive evaluations versus placebo ([9]; 10 mg tid thirty days, then 5 mg tid sixty days): scored consistently better in all cognitive evaluations
- side effects ([9]; ninety-day trial): No serious side effects
- memory versus placebo [10]: significantly improved
- decrease of DCFH2-DA fluorescence (rat brain synaptosomes; [16]): about 50%
- decrease of DHR 123 fluorescence (rat brain synaptosomes; [16]): ~83%
- ascorbate/Fe2+ stimulated consumption of oxygen and TBARS accumulation (rat brain synaptosomes; concentration-dependent): inhibited
- absorption of an ingested dose ([11]; given with food): up to 60%
- elimination half-life following ingestion ([11]; in vivo): one to two
- levels peak in the bloodstream after ingestion ([11]; in vivo): an hour and a half
- time to peak plasma levels after ingestion ([11]; in vivo): one to one and a half
- absorption of an ingested dose ([11]; on an empty stomach): ≥ 7%
- time in which most of a dose is excreted as apovincaminic acid ([11]; urine): ≤ 24 h

Compound: CCOC(=O)C1=C[C@]2(CC)CCCN3CCc4c(n1c1ccccc41)[C@@H]32 [[11C] vinpocetine]
- average maximum brain uptake [12]: 0.7 % of the administered total dose

Compound: COc1ccc2c(=O)oc3c(OC)cc(CCN(C)C)c4c(=O)oc1c2c34 [taspine]
- activity against herpes virus (herpes virus): active

Compound: Phosphatidylserine
- outcome measures of age related cognitive decline [13]: significant drug over time effect
- safe dosage for older persons [14]: ≤ 200 mg three times daily
- feelings of stress and mood (young adults): feeling less stressed and having a better mood
- exercise capacity (exercise capacity): improved exercise capacity

Compound: omega-3 fatty acid
- average diastolic reduction (INTERMAP participants; [17]): 0.92 mm Hg
- average systolic reduction (INTERMAP participants; [17]): 0.91 mm Hg
- reduction in diastolic blood pressure (INTERMAP participants; [18]): 0.98 mm Hg
- reduction in systolic blood pressure (INTERMAP participants; [18]): 1.01 mm Hg
- lower average diastolic blood pressure (INTERMAP participants; [19]): 0.57 mm Hg
- lower average systolic blood pressure (INTERMAP participants; [19]): 0.55 mm Hg
- lower risk of dry eye syndrome (women): 17%

Compound: vitamin E
- less likely to develop cataracts [15]: 14%
